Experimental data as given in patent US11730819B2, “Peptide derivatives having novel linkage structures” (priority 2016, dated 2023).
Where “and” joins values, the source holds several entries; their conditions need not be identical. Equal values may be shown once. Read-outs that look alike come from different tables or passages of the source.

Legend:
MT1-MMP hemopexin domain = biological target: T1, MT1-MMP hemopexin domain (Homo sapiens, UniProt P50281); assay: Fluorescence polarisation competition binding assay
T1 construct: residues Cys319-Gly511 from the human gene; His6 (N); made in house; host or cells: HEK293 cells (transient, pEXPR-IBA42 vector)
Excerpt: The MT1-MMP hemopexin-like repeats (also known as the MT1-MMP hemopexin domain), residues Cys319-Gly511 from the human gene, were transiently expressed in HEK293 cells as secreted N-terminally His6-tagged soluble protein, using the pEXPR-IBA42 (IBA) expression vector. Following expression, the protein was purified by Nickel-NTA affinity chromatography followed by gel filtration, and purity was checked by SDS-PAGE. Batch to batch variability was also monitored by fluorescence thermal shift experiments in the presence/absence of a hemopexin domain binding bicycle.
(§1) Binding affinity was measured using competition assays using Fluorescence Polarisation (anisotropy).
Fluoresceination may be performed on the N-terminal amino group of the peptide, which is separated from the bicycle core sequence by a sarcosine spacer (usually Sar5). This can be done during Fmoc solid phase synthesis or post-synthetically (after cyclisation with TBMB and purification) if the N-terminal amino group is unique to the peptide. Fluoresceination can also be performed on the C-terminus, usually on a Lysine introduced as the first C-terminal residue, which is then separated from the bicycle core sequence by a sarcosine spacer (usually Sar6). Thus, N-terminal tracers can have a molecular format described as Fluo-Gly-Sar5-A(BicycleCoreSequence), and (BicycleCoreSequence)-A-Sar6-K(Fluo) for a C-terminally fluoresceinated construct. Fluorescent tracers used in the Examples are A-(17-69)-A-Sar6-K(Fluo), A-(17-69-07)-A-Sar6-K(Fluo), and A-(17-69-12)-A-Sar6-K(Fluo).
(§2) Here, a pre-formed complex of PEX with the fluorescent PEX-binding tracer is titrated with free, non-fluoresceinated bicyclic peptide. Since all 17-69-based peptides are expected to bind at the same site, the titrant will displace the fluorescent tracer from PEX. Dissociation of the complex can be measured quantitatively, and the Kd of the competitor (titrant) to the target protein determined. The advantage of the competition method is that the affinities of non-fluoresceinated bicyclic peptides can be determined accurately and rapidly.
(§3) Subsequently, the non-fluorescent competitor bicyclic peptide (usually just the bicycle core sequence) is titrated, such that it displaces the fluorescent tracer from the target protein. The displacement of the tracer is measured and associated with a drop in fluorescence polarisation. The drop in fluorescence polarisation is proportional to the fraction of target protein bound with the non-fluorescent titrant, and thus is a measure of the affinity of titrant to target protein.
(§4) The raw data is fit to the analytical solution of the cubic equation that describes the equilibria between fluorescent tracer, titrant, and binding protein. The fit requires the value of the affinity of fluorescent tracer to the target protein, which can be determined separately by direct binding FP experiments (see previous section).

rat/mouse MT1-MMP = rat/mouse MT1-MMP (Mus musculus, UniProt P53690); assay: Binding affinity to rat/mouse MT1-MMP, measured as previously described; details: Binding Affinity (Ki in nM) rat/mouse ki, bicycle peptide-drug conjugates, two values given
Protocol: as §1, §2, §3
as §4, with “section). The curve fitting was performed using Sigmaplot 12.0 and used an adapted version of the equation described by Zhi-Xin Wang (FEBS Letters 360 (1995) 111-114).” for “section).”
The in vitro binding affinities of the bicycle peptide-drug conjugates prepared above were measured for MT1-MMP as previously described herein.

[1] = Plasma stability in mouse serum; assay type: in vitro ADME; details: 4 μm concentration, read-out: T1/2 in mouse serum
Excerpt: (§5) The stability appears to be slightly greater than that of the corresponding conjugates in which the peptide is linked to the scaffold by three thioether linkages.

[2] = Plasma stability in human serum; assay type: in vitro ADME; details: 4 μm concentration, read-out: T1/2 in human serum
Excerpt: as §5

[3] = Binding Affinity (Ki in nM) Human ki, bicycle peptide-drug conjugates, human MT1-MMP, two values given
[4] = human MT1-MMP, bicycle peptides, read-out: Binding Affinity Ki (h)

Structure (SMILES): CC[C@H](C)[C@@H]([C@@H](CC(=O)N1CCC[C@H]1[C@H](OC)[C@@H](C)C(=O)N[C@H](C)[C@@H](O)c1ccccc1)OC)N(C)C(=O)[C@@H](NC(=O)[C@H](C(C)C)N(C)C(=O)OCc1ccc(NC(=O)[C@H](CCCNC(N)=O)NC(=O)[C@@H](NC(=O)CCCC(=O)NCCC(=O)N(C)CC(=O)N(C)CC(=O)N(C)CC(=O)N(C)CC(=O)N(C)CC(=O)N(C)CC(=O)N(C)CC(=O)N(C)CC(=O)N(C)CC(=O)N(C)CC(=O)N[C@@H](C)C(=O)N[C@H]2CN(C)Cc3cc4cc(c3)CN(C)C[C@@H](C(N)=O)NC(=O)[C@H](C(C)(C)C)NC(=O)[C@H](CC(=O)O)NC(=O)[C@H](Cc3ccc(O)cc3)NC(=O)[C@H](Cc3ccccc3)NC(=O)[C@H](CC(=O)O)NC(=O)[C@H](CCC(=O)O)NC(=O)[C@H](CSC4)NC(=O)[C@@H](C)NC(=O)[C@H](Cc3cccc4ccccc34)NC(=O)[C@H](CCC(=O)O)NC(=O)[C@H](CC(N)=O)NC(=O)[C@@H](C)NC2=O)C(C)C)cc1)C(C)C [BT17BDC-68]
- Ki (MT1-MMP hemopexin domain; [3]): 2.9 nM and 3.3 nM
- Ki (rat/mouse MT1-MMP): 1.8 nM and 1.6 nM

Structure (SMILES): CC[C@H](C)[C@@H]([C@@H](CC(=O)N1CCC[C@H]1[C@H](OC)[C@@H](C)C(=O)N[C@H](C)[C@@H](O)c1ccccc1)OC)N(C)C(=O)[C@@H](NC(=O)[C@H](C(C)C)N(C)C(=O)OCc1ccc(NC(=O)[C@H](CCCNC(N)=O)NC(=O)[C@@H](NC(=O)Cn2cc(CCC(=O)NCCC(=O)N(C)CC(=O)N(C)CC(=O)N(C)CC(=O)N(C)CC(=O)N(C)CC(=O)N(C)CC(=O)N(C)CC(=O)N(C)CC(=O)N(C)CC(=O)N(C)CC(=O)N[C@@H](C)C(=O)N[C@H]3CNCc4cc5cc(c4)CSC[C@H](NC(=O)[C@@H](C)NC(=O)[C@H](Cc4cccc6ccccc46)NC(=O)[C@H](CCC(=O)O)NC(=O)[C@H](CC(N)=O)NC(=O)[C@@H](C)NC3=O)C(=O)N[C@@H](CCC(=O)O)C(=O)N[C@@H](CC(=O)O)C(=O)N[C@@H](Cc3ccccc3)C(=O)N[C@@H](Cc3ccc(O)cc3)C(=O)N[C@@H](CC(=O)O)C(=O)N[C@@H](C(C)(C)C)C(=O)N[C@H](C(N)=O)CNC5)nn2)C(C)C)cc1)C(C)C [BT17BDC-53]
- Ki (MT1-MMP hemopexin domain; [3]): 3.6 nM and 2.5 nM
- Ki (rat/mouse MT1-MMP): 1.8 nM and 1.6 nM
- half-life at 4 μm [1]: > 3000 min
- half-life at 4 μm [2]: > 3000 min

Structure (SMILES): C[C@H](NC(=O)CN(C)C(=O)CN(C)C(=O)CN(C)C(=O)CN(C)C(=O)CN(C)C(=O)CN(C)C(=O)CN(C)C(=O)CN(C)C(=O)CN(C)C(=O)CN(C)C(=O)CCN)C(=O)N[C@H]1CN(C)Cc2cc3cc(c2)CN(C)C[C@@H](C(N)=O)NC(=O)[C@H](C(C)(C)C)NC(=O)[C@H](CC(=O)O)NC(=O)[C@H](Cc2ccc(O)cc2)NC(=O)[C@H](Cc2ccccc2)NC(=O)[C@H](CC(=O)O)NC(=O)[C@H](CCC(=O)O)NC(=O)[C@H](CSC3)NC(=O)[C@@H](C)NC(=O)[C@H](Cc2cccc3ccccc23)NC(=O)[C@H](CCC(=O)O)NC(=O)[C@H](CC(N)=O)NC(=O)[C@@H](C)NC1=O [17-69-07-N451, (B-Ala)-Sar10-A(Dap(Me))(D-Ala)NE(1Nal)(D-Ala)CEDFYD(tBuGly)(Dap(Me))]
- Ki (MT1-MMP hemopexin domain; [4]): 3.7 nM

Structure (SMILES): CC(=O)N[C@@H](C)C(=O)N[C@H]1CN(C)Cc2cc3cc(c2)CN(C)C[C@@H](C(N)=O)NC(=O)[C@H](C(C)(C)C)NC(=O)[C@H](CC(=O)O)NC(=O)[C@H](Cc2ccc(O)cc2)NC(=O)[C@H](Cc2ccccc2)NC(=O)[C@H](CC(=O)O)NC(=O)[C@H](CCC(=O)O)NC(=O)[C@H](CSC3)NC(=O)[C@@H](C)NC(=O)[C@H](Cc2cccc3ccccc23)NC(=O)[C@H](CCC(=O)O)NC(=O)[C@H](CC(N)=O)NC(=O)[C@@H](C)NC1=O [17-69-07-N426, Ac-A(Dap(Me))(D-Ala)NE(1Nal)(D-Ala)CEDFYD(tBuGly)(Dap(Me))]
- Kd (MT1-MMP hemopexin domain; competition FP, bicycle peptides, read-out: measured affinity (Kd) to MT1-MMP): 0.36 nM

Structure (SMILES): C#CCCC(=O)N[C@H](CC(=O)O)C(=O)N[C@H](CC(=O)O)C(=O)N[C@H](CC(=O)O)C(=O)N(C)CC(=O)N(C)CC(=O)N[C@@H](C)C(=O)N[C@H]1CN(C)Cc2cc3cc(c2)CN(C)C[C@@H](C(N)=O)NC(=O)[C@H](C(C)(C)C)NC(=O)[C@H](CC(=O)O)NC(=O)[C@H](Cc2ccc(O)cc2)NC(=O)[C@H](Cc2ccccc2)NC(=O)[C@H](CC(=O)O)NC(=O)[C@H](CCC(=O)O)NC(=O)[C@H](CSC3)NC(=O)[C@@H](C)NC(=O)[C@H](Cc2cccc3ccccc23)NC(=O)[C@H](CCC(=O)O)NC(=O)[C@H](CC(N)=O)NC(=O)[C@@H](C)NC1=O [17-69-07-N471, (PYA)-(D-Asp)3-Sar2-A(Dap(Me))(D-Ala)NE(1Nal)(D-Ala)CEDFYD(tBuGly)(Dap(Me))]
- Ki (MT1-MMP hemopexin domain; [4]): 4.6 nM

Structure (SMILES): C#CCCC(=O)N[C@H](CC(=O)O)C(=O)N[C@H](CC(=O)O)C(=O)N[C@H](CC(=O)O)C(=O)N(C)CC(=O)N(C)CC(=O)N[C@@H](C)C(=O)N[C@H]1CN(C)Cc2cc3cc(c2)CN(C)C[C@H](NC(=O)[C@@H](C)NC(=O)[C@H](Cc2cccc4ccccc24)NC(=O)[C@H](CCC(=O)O)NC(=O)[C@H](CC(N)=O)NC(=O)[C@@H](C)NC1=O)C(=O)N[C@@H](CCC(=O)O)C(=O)N[C@@H](CC(=O)O)C(=O)N[C@@H](Cc1ccccc1)C(=O)N[C@@H](Cc1ccc(O)cc1)C(=O)N[C@@H](CC(=O)O)C(=O)N[C@@H](C(C)(C)C)C(=O)N[C@H](C(N)=O)CSC3 [17-69-07-N473, (PYA)-(D-Asp)3-Sar2-A(Dap(Me))(D-Ala)NE(1Nal)(D-Ala)(Dap(Me))EDFYD(tBuGly)C]
- Ki (MT1-MMP hemopexin domain): 7.3 nM

Structure (SMILES): CC[C@H](C)[C@@H]([C@@H](CC(=O)N1CCC[C@H]1[C@H](OC)[C@@H](C)C(=O)N[C@H](C)[C@@H](O)c1ccccc1)OC)N(C)C(=O)[C@@H](NC(=O)[C@H](C(C)C)N(C)C(=O)OCc1ccc(NC(=O)[C@H](CCCNC(N)=O)NC(=O)[C@@H](NC(=O)Cn2cc(CCC(=O)N[C@@H](C)C(=O)N[C@H]3CN(C)Cc4cc5cc(c4)CN(C)C[C@@H](C(N)=O)NC(=O)[C@H](C(C)(C)C)NC(=O)[C@H](CC(=O)O)NC(=O)[C@H](Cc4ccc(O)cc4)NC(=O)[C@H](Cc4ccccc4)NC(=O)[C@H](CC(=O)O)NC(=O)[C@H](CCC(=O)O)NC(=O)[C@H](CSC5)NC(=O)[C@@H](C)NC(=O)[C@H](Cc4cccc5ccccc45)NC(=O)[C@H](CCC(=O)O)NC(=O)[C@H](CC(N)=O)NC(=O)[C@@H](C)NC3=O)nn2)C(C)C)cc1)C(C)C [BT17BDC-62]
- Ki (MT1-MMP hemopexin domain; [3]): 3.9 nM and 3.3 nM
- Ki (rat/mouse MT1-MMP): 2.1 nM and 1.9 nM

Structure (SMILES): C#CCCC(=O)NCCC(=O)N(C)CC(=O)N(C)CC(=O)N(C)CC(=O)N(C)CC(=O)N(C)CC(=O)N[C@@H](C)C(=O)N[C@H]1CN(C)Cc2cc3cc(c2)CN(C)C[C@@H](C(N)=O)NC(=O)[C@H](C(C)(C)C)NC(=O)[C@H](CC(=O)O)NC(=O)[C@H](Cc2ccc(O)cc2)NC(=O)[C@H](Cc2ccccc2)NC(=O)[C@H](CC(=O)O)NC(=O)[C@H](CCC(=O)O)NC(=O)[C@H](CSC3)NC(=O)[C@@H](C)NC(=O)[C@H](Cc2cccc3ccccc23)NC(=O)[C@H](CCC(=O)O)NC(=O)[C@H](CC(N)=O)NC(=O)[C@@H](C)NC1=O [17-69-07-N472, (PYA)-(B-Ala)-Sar5-A(Dap(Me))(D-Ala)NE(1Nal)(D-Ala)CEDFYD(tBuGly)(Dap(Me))]
- Ki (MT1-MMP hemopexin domain; [4]): 3.4 nM

Structure (SMILES): C[C@H](N)C(=O)N[C@H]1CN(C)Cc2cc3cc(c2)CN(C)C[C@@H](C(N)=O)NC(=O)[C@H](C(C)(C)C)NC(=O)[C@H](CC(=O)O)NC(=O)[C@H](Cc2ccc(O)cc2)NC(=O)[C@H](Cc2ccccc2)NC(=O)[C@H](CC(=O)O)NC(=O)[C@H](CCC(=O)O)NC(=O)[C@H](CSC3)NC(=O)[C@@H](C)NC(=O)[C@H](Cc2cccc3ccccc23)NC(=O)[C@H](CCC(=O)O)NC(=O)[C@H](CC(N)=O)NC(=O)[C@@H](C)NC1=O [17-69-07-N452, A(Dap(Me))(D-Ala)NE(1Nal)(D-Ala)CEDFYD(tBuGly)(Dap(Me))]
- Ki (MT1-MMP hemopexin domain; [4]): 4 nM
